Several values for one entry are separate records, joined by “and”; a condition that tells them apart may be missing. Equal values may be shown once.
How the values were obtained:
[1] = Molar enthalpy of transition or fusion; settings: Crystal; DSC
[2] = Crystal; for vapor or sublimation pressure: Calculated from knudsen effusion weight loss; for Normal melting temperature: DTA

O=C(O)Cc1ccccc1Cl [(2-chlorophenyl)ethanoic acid]
Settings	Molar enthalpy of transition or fusion [kcal/mol]	Normal melting temperature [°C]
[1]	5.82	–
[2]	–	94.24

[2]
Settings	vapor or sublimation pressure
322.2 K	0.000151 kPa and 0.000153 kPa and 0.000152 kPa
324.14 K	0.000196 kPa and 0.000198 kPa and 0.000197 kPa
326.11 K	0.00025 kPa and 0.000251 kPa and 0.000255 kPa
328.2 K	0.000315 kPa and 0.00032 kPa and 0.000316 kPa
330.13 K	0.000401 kPa and 0.000406 kPa and 0.000402 kPa
332.19 K	0.000518 kPa and 0.000512 kPa
334.12 K	0.00065 kPa and 0.000639 kPa
336.11 K	0.000837 kPa and 0.000813 kPa and 0.000829 kPa
338.11 K	0.00105 kPa and 0.00103 kPa

O=C(O)Cc1ccc(Cl)cc1 [(4-chlorophenyl)ethanoic acid]
Settings	Molar enthalpy of transition or fusion [kcal/mol]	Normal melting temperature [°C]
[1]	5.63	–
[2]	–	104.8

[2]
Settings	vapor or sublimation pressure
325.2 K	0.000154 kPa and 0.000156 kPa and 0.000153 kPa
327.15 K	0.000194 kPa and 0.000199 kPa and 0.000197 kPa
329.12 K	0.000252 kPa and 0.00025 kPa
331.19 K	0.000318 kPa and 0.000312 kPa
333.14 K	0.000401 kPa and 0.000398 kPa and 0.000394 kPa
335.12 K	0.000506 kPa and 0.000502 kPa
337.2 K	0.000631 kPa and 0.000634 kPa
339.13 K	0.000788 kPa and 0.000793 kPa and 0.000775 kPa
341.11 K	0.001 kPa and 0.00099 kPa and 0.00098 kPa

O=C(O)Cc1cccc(Cl)c1 [(3-chlorophenyl)ethanoic acid]
Settings	Molar enthalpy of transition or fusion [kcal/mol]	Normal melting temperature [°C]
[1]	5.4	–
[2]	–	76.63

[2]
Settings	vapor or sublimation pressure
319.2 K	0.000131 kPa and 0.000132 kPa and 0.000133 kPa
321.13 K	0.000172 kPa and 0.000174 kPa
323.11 K	0.000226 kPa and 0.000216 kPa and 0.000224 kPa
325.2 K	0.000281 kPa and 0.000279 kPa
327.12 K	0.000356 kPa and 0.00036 kPa
329.11 K	0.000468 kPa and 0.000453 kPa and 0.00046 kPa
331.19 K	0.000576 kPa and 0.000578 kPa and 0.000567 kPa
333.11 K	0.000733 kPa and 0.000713 kPa
335.11 K	0.00092 kPa
